Like-named read-outs stand apart in the source and are kept apart here.
Target: T1, HGFR (Homo sapiens, UniProt P08581)
T1 construct: purchased Upstate 14-526
Test: HGFR continuous-coupled spectrophotometric assay
Format: biochemical
Settings: for inhibition at 1 µM: Table 6, percent c-MET inhibition at 1 μM, read-out: % inhibition; for I(%): Table 3, Ki(μM) or I(%), test concentration not given

[1] = Table 5, percent c-MET inhibition at 50 nM

T1 sequence (P08581 974-1390 limits assumed): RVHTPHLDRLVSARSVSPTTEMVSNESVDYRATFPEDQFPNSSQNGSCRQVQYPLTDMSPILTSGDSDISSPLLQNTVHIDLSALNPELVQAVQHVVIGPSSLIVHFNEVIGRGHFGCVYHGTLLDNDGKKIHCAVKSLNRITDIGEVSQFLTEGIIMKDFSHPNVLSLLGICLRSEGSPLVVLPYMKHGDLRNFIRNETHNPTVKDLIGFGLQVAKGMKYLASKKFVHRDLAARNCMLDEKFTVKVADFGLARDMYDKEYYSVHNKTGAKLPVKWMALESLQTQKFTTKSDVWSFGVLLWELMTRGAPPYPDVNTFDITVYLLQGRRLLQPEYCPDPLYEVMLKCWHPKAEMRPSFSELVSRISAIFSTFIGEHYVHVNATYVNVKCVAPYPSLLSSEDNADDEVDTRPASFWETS

inhibition at 1 µM	% inhibition	also measured	SMILES
72%	–	–	Nc1ncc(C(=O)N2CCC(Cc3cnccn3)CC2)cc1OCc1c(Cl)cccc1Cl
–	–	% inhibition (Table 5, percent c-MET inhibition at 50 nM, 0.05 µM): % inhibition = 54	CC(Oc1cc(-c2ccc(C(=O)N[C@H](C)C3CCCCC3)cc2)cnc1N)c1c(Cl)ccc(F)c1Cl (stereo partly shown) [drawing 1071]
16%	–	–	Nc1ncc(C(=O)N[C@@H]2CCC[C@H]2OCc2ccccc2)cc1OCc1c(Cl)cccc1Cl
–	–	I(%): 24%	CC(Oc1cc(-c2ccccc2Cl)cnc1N)c1c(Cl)ccc(F)c1Cl (stereo not shown) [Example I-560, 5-(2-Chloro-phenyl)-3-[1-(2,6-dichloro-3-fluoro-phenyl)-ethoxy]-pyridin-2-ylamine]
28%	–	–	NC(=O)CCNC(=O)c1cnc(N)c(OCc2c(Cl)cccc2Cl)c1
–	% inhibition = 9	–	CC(=O)N(c1ccc(C)cc1)c1nc(COc2cc(-c3ccc(C(=O)N4CCC(N5CCCC5)CC4)cc3)cnc2N)cs1
29%	–	–	CN(C)CCNC(=O)c1cnc(N)c(OCc2c(Cl)cccc2Cl)c1
–	% inhibition = 47	–	CCN(CC)c1ccc(NC(=O)c2ccc(COc3cc(-c4ccc(C(=O)N5CCC(N6CCCC6)CC5)cc4)cnc3N)cc2)cc1
–	–	I(%): 0%	COC(=O)c1cccc(COc2cc(-c3ccc(C(=O)N4CC(C)NC(C)C4)cc3)cnc2N)c1 (stereo not shown) [Example I-626, 3-{2-Amino-5-[4-(3,5-dimethyl-piperazine-1-carbonyl)-phenyl]-pyridin-3-yloxymethyl}-benzoic acid methyl ester]
–	% inhibition = 19	–	Nc1ncc(-c2ccc(C(=O)N3CCC(N4CCCC4)CC3)cc2)cc1OCc1cc(Cl)cc(Cl)c1
–	% inhibition = 6	–	Nc1ncc(-c2ccc(C(=O)N3CCC(N4CCCC4)CC3)cc2)cc1OCc1nc(NC2CC2)c2ccccc2n1
–	% inhibition = 19	–	CC(C)Oc1cc(C(F)(F)F)nc2ccc(COc3cc(-c4ccc(C(=O)N5CCC(N6CCCC6)CC5)cc4)cnc3N)cc12
33%	–	–	CN1CCC(N(C)C(=O)c2cnc(N)c(OCc3c(Cl)cccc3Cl)c2)C1 (stereo not shown)
–	% inhibition = 8	–	CCOC(=O)c1nc(COc2cc(-c3ccc(C(=O)N4CCC(N5CCCC5)CC4)cc3)cnc2N)no1
–	% inhibition = 9	–	Nc1ncc(-c2ccc(C(=O)N3CCC(N4CCCC4)CC3)cc2)cc1OCc1cncc2ccccc12
34%	–	–	Nc1ncc(C(=O)N2CCN(c3ccccn3)CC2)cc1OCc1c(Cl)cccc1Cl
–	–	inhibition at 0.05 µM [1]: 67%	COc1ccc(C(NC(=O)c2ccc(-c3cnc(N)c(OC(C)c4c(Cl)ccc(F)c4Cl)c3)cc2)C2CC2)cc1 (stereo not shown)
–	–	inhibition at 0.05 µM [1]: 73%	CC(Oc1cc(-c2ccc(C(=O)N[C@H]3CC[C@H](O)CC3)cc2)cnc1N)c1c(Cl)ccc(F)c1Cl (stereo partly shown) [drawing 1039]
–	–	I(%): 4%	CC(Oc1cc(-c2ccccc2C(F)(F)F)cnc1N)c1c(Cl)ccc(F)c1Cl (stereo not shown) [Example I-559, 3-[1-(2,6-Dichloro-3-fluoro-phenyl)-ethoxy]-5-(2-trifluoromethyl-phenyl)-pyridin-2-ylamine]
12%	–	–	NC(=O)c1ccc(CC2CCN(C(=O)c3cnc(N)c(OCc4c(Cl)cccc4Cl)c3)CC2)cc1
19%	–	–	CCN1CCCC(NC(=O)c2cnc(N)c(OCc3c(Cl)cccc3Cl)c2)C1 (stereo not shown)
32%	–	–	Nc1ncc(C(=O)NCc2ccc(F)cc2)cc1OCc1c(Cl)cccc1Cl
33%	–	–	Nc1ncc(C(=O)NCCc2ccccc2F)cc1OCc1c(Cl)cccc1Cl

inhibition at 1 µM	% inhibition	also measured	SMILES
–	% inhibition = 22	–	Nc1ncc(-c2ccc(C(=O)N3CCC(N4CCCC4)CC3)cc2)cc1OCc1ccccc1-c1ccccc1
–	% inhibition = 10	–	Nc1ncc(-c2ccc(C(=O)N3CCC(N4CCCC4)CC3)cc2)cc1OCc1ccncc1
–	% inhibition = 10	–	Cc1noc(C)c1COc1cc(-c2ccc(C(=O)N3CCC(N4CCCC4)CC3)cc2)cnc1N
–	% inhibition = 23	–	COc1cccc(COc2cc(-c3ccc(C(=O)N4CCC(N5CCCC5)CC4)cc3)cnc2N)c1OC
–	% inhibition = 12	–	Nc1ncc(-c2ccc(C(=O)N3CCC(N4CCCC4)CC3)cc2)cc1OCc1cccc(C(=O)NCCc2ccccn2)c1
–	–	inhibition at 0.05 µM [1]: 69%	CC(Oc1cc(-c2ccc(C(=O)NC(C)C(O)c3ccccc3)cc2)cnc1N)c1c(Cl)ccc(F)c1Cl (stereo not shown)
–	% inhibition = 10	–	Cn1c(COc2cc(-c3ccc(C(=O)N4CCC(N5CCCC5)CC4)cc3)cnc2N)nc2ccccc21
–	% inhibition = 15	–	Nc1ncc(-c2ccc(C(=O)N3CCC(N4CCCC4)CC3)cc2)cc1OCc1ccc(C(=O)NCc2cccnc2)cc1
–	% inhibition = 14	–	Cc1nc(COc2cc(-c3ccc(C(=O)N4CCC(N5CCCC5)CC4)cc3)cnc2N)n(C)n1
37%	–	–	N#CC1(c2ccccc2)CCN(C(=O)c2cnc(N)c(OCc3c(Cl)cccc3Cl)c2)CC1
–	–	I(%): 2%	CC(Oc1cc(-c2ccc(C(=O)N3C[C@@H](C)N[C@@H](C)C3)cc2)cnc1N)c1cccc(C(F)(F)F)c1 (stereo partly shown) [Example I-617, (4-{6-Amino-5-[1-(3-trifluoromethyl-phenyl)-ethoxy]-pyridin-3-yl]-phenyl)-(3,5-dimethyl-piperazin-1-yl)-methanone]
–	% inhibition = 24	–	Nc1ncc(-c2ccc(C(=O)N3CCC(N4CCCC4)CC3)cc2)cc1OCc1cccc(Br)c1
–	% inhibition = 23	–	Nc1ncc(-c2ccc(C(=O)N3CCC(N4CCCC4)CC3)cc2)cc1OCc1cc(-c2ccc(Cl)cc2)no1
–	–	inhibition at 0.05 µM [1]: 56%	CC(NC(=O)c1ccc(-c2cnc(N)c(OC(C)c3c(Cl)ccc(F)c3Cl)c2)cc1)c1ccc(F)cc1 (stereo not shown)
–	% inhibition = 9	–	Nc1ncc(-c2ccc(C(=O)N3CCC(N4CCCC4)CC3)cc2)cc1OCc1nc(CS(=O)(=O)c2ccccn2)no1
–	% inhibition = 15	–	Nc1ncc(-c2ccc(C(=O)N3CCC(N4CCCC4)CC3)cc2)cc1OCc1cccc(CO)n1
25%	–	–	Nc1ncc(C(=O)N2CCC(O)(CCc3ccncc3)CC2)cc1OCc1c(Cl)cccc1Cl
–	–	inhibition at 0.05 µM [1]: 77%	CC(Oc1cc(-c2ccc(C(=O)N3CCN(CCC#N)CC3)cc2)cnc1N)c1c(Cl)ccc(F)c1Cl (stereo not shown)
–	% inhibition = 17	–	Nc1ncc(-c2ccc(C(=O)N3CCC(N4CCCC4)CC3)cc2)cc1OCc1nc2ccccc2s1
45%	–	–	Cc1ccn2cc(CNC(=O)c3cnc(N)c(OCc4c(Cl)cccc4Cl)c3)nc2n1
–	% inhibition = 18	–	Nc1ncc(-c2ccc(C(=O)N3CCC(N4CCCC4)CC3)cc2)cc1OCc1ccc(F)cc1F
–	% inhibition = 27	–	Nc1ncc(-c2ccc(C(=O)N3CCC(N4CCCC4)CC3)cc2)cc1OCc1ccccc1OC(F)F
–	% inhibition = 28	–	Cc1cccc(COc2cc(-c3ccc(C(=O)N4CCC(N5CCCC5)CC4)cc3)cnc2N)c1F

inhibition at 1 µM	% inhibition	also measured	SMILES
23%	–	–	CS(=O)(=O)C1CCN(C(=O)c2cnc(N)c(OCc3c(Cl)cccc3Cl)c2)C1 (stereo not shown)
26%	–	–	Nc1ncc(C(=O)N2CCN(Cc3cccc4ccccc34)CC2)cc1OCc1c(Cl)cccc1Cl
–	% inhibition = 26	–	Cc1ccc(COc2cc(-c3ccc(C(=O)N4CCC(N5CCCC5)CC4)cc3)cnc2N)cc1Cl
10%	–	–	Nc1ncc(C(=O)N2CCC(COCc3ccccc3F)CC2)cc1OCc1c(Cl)cccc1Cl
–	% inhibition = 34	–	Nc1ncc(-c2ccc(C(=O)N3CCC(N4CCCC4)CC3)cc2)cc1OCc1nc2cc(C(F)(F)F)ccc2s1
37%	–	–	Nc1ncc(C(=O)NCc2ccc(O)cc2)cc1OCc1c(Cl)cccc1Cl
–	% inhibition = 59	–	Nc1ncc(-c2ccc(C(=O)N3CCC(N4CCCC4)CC3)cc2)cc1OCc1ccc2ccccc2c1Br
–	% inhibition = 11	–	Nc1ncc(-c2ccc(C(=O)N3CCC(N4CCCC4)CC3)cc2)cc1OCc1ccc(C(=O)NCCN2CCOCC2)cc1
33%	–	–	Nc1ncc(C(=O)NCc2ccc(F)cc2F)cc1OCc1c(Cl)cccc1Cl
–	% inhibition = 31	–	Nc1ncc(-c2ccc(C(=O)N3CCC(N4CCCC4)CC3)cc2)cc1OCc1ccc(Br)cc1F
–	–	inhibition at 0.05 µM [1]: 70%	CC(Oc1cc(-c2ccc(C(=O)NCC(c3ccc[nH]3)C(F)(F)F)cc2)cnc1N)c1c(Cl)ccc(F)c1Cl (stereo not shown)
–	% inhibition = 20	–	Nc1ncc(-c2ccc(C(=O)N3CCC(N4CCCC4)CC3)cc2)cc1OCc1ccc(OC(F)(F)F)cc1
18%	–	–	CCCCOc1ccc(CNC(=O)c2cnc(N)c(OCc3c(Cl)cccc3Cl)c2)cc1
–	% inhibition = 10	–	Nc1ncc(-c2ccc(C(=O)N3CCC(N4CCCC4)CC3)cc2)cc1OCc1cccc(C(=O)Nc2cccnc2)c1
20%	–	–	COCCNC(=O)C1CCCN(C(=O)c2cnc(N)c(OCc3c(Cl)cccc3Cl)c2)C1 (stereo not shown)
–	–	inhibition at 0.05 µM [1]: 70%	CC(=O)N(C)C1CCN(C(=O)c2ccc(-c3cnc(N)c(OC(C)c4c(Cl)ccc(F)c4Cl)c3)cc2)C1 (stereo not shown)
–	% inhibition = 10	–	COc1ccc(-c2nc(COc3cc(-c4ccc(C(=O)N5CCC(N6CCCC6)CC5)cc4)cnc3N)no2)cc1
24%	–	–	CN1CCN(CCCNC(=O)c2cnc(N)c(OCc3c(Cl)cccc3Cl)c2)CC1
–	% inhibition = 16	–	CCCCc1nc(COc2cc(-c3ccc(C(=O)N4CCC(N5CCCC5)CC4)cc3)cnc2N)c[nH]1
–	% inhibition = 28	–	Nc1ncc(-c2ccc(C(=O)N3CCC(N4CCCC4)CC3)cc2)cc1OCc1ccc(Cl)cc1Br
66%	–	–	Nc1ncc(C(=O)NCCOc2ccccc2)cc1OCc1c(Cl)cccc1Cl
